Reference: publication PMC8164609 (Environmental Science and Pollution Research International, 2021)
Where two headings read alike, the source gives them in different places.

Experiments:
human ERα = molecular target: T1, human ERα (Homo sapiens, UniProt P03372); assay: Yeast bioluminescent assay, S. cerevisiae BMAEREluc/ERα (ERE-luc reporter); format: cell-based; settings: S. cerevisiae BMAEREluc/ERα, about 2.5 h incubation, 5% EtOH vehicle; read-out: EC50 (estrogenic potency, luminescence)
T1 construct: expressed in transfected cells; host or cells: Saccharomyces cerevisiae BMAEREluc/ERα (recombinant yeast, gift of Dr. Johanna Rajasärkkä, University of Helsinki)
T1 sequence (P03372 1-595): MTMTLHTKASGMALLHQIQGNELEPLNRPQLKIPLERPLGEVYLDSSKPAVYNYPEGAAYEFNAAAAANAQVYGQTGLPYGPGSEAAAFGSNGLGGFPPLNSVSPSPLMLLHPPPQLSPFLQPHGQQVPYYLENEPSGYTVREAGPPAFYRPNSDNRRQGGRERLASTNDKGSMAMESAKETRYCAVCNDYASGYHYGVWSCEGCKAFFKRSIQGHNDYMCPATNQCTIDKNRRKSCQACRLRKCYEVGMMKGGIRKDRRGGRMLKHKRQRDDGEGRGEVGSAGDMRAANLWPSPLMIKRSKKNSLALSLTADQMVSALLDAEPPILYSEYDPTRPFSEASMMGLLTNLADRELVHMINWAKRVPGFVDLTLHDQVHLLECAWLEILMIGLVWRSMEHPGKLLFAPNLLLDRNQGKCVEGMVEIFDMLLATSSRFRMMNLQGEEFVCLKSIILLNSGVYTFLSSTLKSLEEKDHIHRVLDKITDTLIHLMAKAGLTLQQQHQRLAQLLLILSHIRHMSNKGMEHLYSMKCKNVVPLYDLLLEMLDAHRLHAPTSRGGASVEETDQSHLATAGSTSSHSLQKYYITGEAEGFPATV
Procedure: Yeast bioluminescent assay was performed as previously described (Omoruyi and Pohjanvirta [2018]). Two recombinant yeasts, Saccharomyces cerevisiae BMAEREluc/ERα and Saccharomyces cerevisiae BMA64/luc, were kindly provided by Dr. Johanna Rajasärkkä, Department of Food and Environmental Sciences, Faculty of Agriculture and Forestry, University of Helsinki. In the BMAEREluc/ERα, human ERα is expressed. After estrogen-like chemicals bind to ERα, the dimerized receptor binds to a specific DNA sequence called estrogen response element (ERE), in the promotor region of the luc reporter gene, inducing its expression. In BMA64/luc, the luciferase is expressed constitutively, and this strain can be used for the evaluation of cytotoxicity of test compounds. […]
Next, 90 μL of cultured yeasts containing 1:20 luciferin solution (0.042 g luciferin dissolved in 9.75 mL of 0.2 M trisodium citrate, and 5.525 mL of 0.2 M citrate, pH 5) was pipetted into every well of a white 96-well flat-bottom plate, and 10 μL of test compounds in a defined concentration range (diluted in 5% EtOH) were added. […] The luminescence measurement was performed with Luminoskan Ascent microplate luminometer (Thermo Labsystems) using the recommended settings as follows: 1000 ms integration time, single measurement mode, shaking at 60 rpm for 5 s prior to measurement. […]

human lymphocytes = settings: MTT, cited from earlier work
mice = test system: mice; design: method as in Poul et al. [2009]; settings: 20, 200 or 1000 mg/kg twice, 24-h interval, oral gavage; ref Poul et al. [2009]; cited from earlier work
[1] = test system: estrogen signaling cascade; design: method as in Datta and Lundin-Schiller [2008]; Axon et al. [2012]; settings: ref Datta and Lundin-Schiller [2008]; Axon et al. [2012]; cited from earlier work
[2] = Estimated human serum concentration from dietary exposure; settings: 7.3 mg/kg body weight/day as bolus, 2% absorbed, even distribution, maximum reduced by 50%
Procedure: Tartrazine has been classified as a xenoestrogen that can bind to ERα in the MCF-7 cell line (Axon et al. [2012]). […] This raises the question whether tartrazine could create any estrogenic effect in humans at its prevailing serum concentrations. Based on the data published by EFSA, the 95th or 97.5th percentile exposure levels for human is 7.3 mg/kg body weight/day (EFSA [2009]).

O=C([O-])C1=NN(c2ccc(S(=O)(=O)[O-])cc2)C(=O)C1N=Nc1ccc(S(=O)(=O)[O-])cc1.[Na+].[Na+].[Na+] (stereo not drawn) [tartrazine]
EC50 (human ERα): 0.1 nM | cytotoxicity to human lymphocytes (human lymphocytes; 0.25–64 mM, ref Soares et al. [2015]): not cytotoxic | cytotoxicity to human lymphocytes (human lymphocytes; 4 and 8 mM, ref Mpountoukas et al. [2010]): cytotoxic | mutagenic or cytotoxic effects in mice (mice): did not elicit mutagenic or cytotoxic effects | concentration range of estrogenic effect in vitro [1]: 1 to 10000 pM | estimated serum concentration [2]: 137 nM
